Test results from patent EP0908457B1, “3-(1,2-benzisothiazol- and isoxazol-5-Y1)-2,4(1H,3H)-pyrimidinedione or thione and 3-(1,2-benzisothiazol- and isoxazol-5-y1)-4(3H)-pyrimidinone or thione herbicidal agents” (BASF AKTIENGESELLSCHAFT, priority 1997, dated 1999).

Assays:
[1] = system: Echinochloa oryzoides (Ard.) Fritsch.; test: Preemergence weed control under flooded paddy conditions, ECHORC (Watergrass (Calif.)); type: in vivo; details: preemergence, flooded paddy
[2] = system: Cyperus serotinus, Rottb.; test: Preemergence weed control under flooded paddy conditions, CYPSE (Flatsedge); type: in vivo; details: preemergence
Sagittaria pygmaea, L. = test: Preemergence weed control under flooded paddy conditions, SAGPY (Arrowhead (Pygmaea)); type: in vivo; details: preemergence, flooded paddy
[3] = system: Oryza sativa, (L.) Tebonnet; test: Rice tolerance to post-transplant applications under flooded paddy conditions (Example 187), ORYSAT (Rice, Tebonnet)
Cyperus iria = test: Preemergence weed control under flooded paddy conditions, CYPIR (Rice Flatsedge); type: in vivo; details: preemergence, flooded paddy
[4] = system: Monochoria vaginalis, Presl.; test: Preemergence weed control under flooded paddy conditions, MOOVA (Monochoria); type: in vivo; details: preemergence, flooded paddy
[5] = Rate 0.0320 kg/ha, rated 3-4 weeks after treatment
[6] = Rate 0.0620 kg/ha, rated 3-4 weeks after treatment
[7] = Rate 0.1250 kg/ha, rated 3-4 weeks after treatment
[8] = Rate 0.2500 kg/ha, rated 3-4 weeks after treatment
[9] = Rate 0.0320 kg/ha, rated three to four weeks after treatment
[10] = Rate 0.0620 kg/ha, rated three to four weeks after treatment
[11] = Rate 0.1250 kg/ha, rated three to four weeks after treatment
[12] = Rate 0.2500 kg/ha, rated three to four weeks after treatment
Note: meaning of each grade not given here.

CON(C)C(=O)/C=C/c1nsc2ccc(-n3c(=O)cc(C(F)(F)F)n(C)c3=O)cc12 [Example 565, 1,2-Benzisothiazole-3-acrylamide, 5-[3,6-dihydro-3-methyl-2,6-dioxo-4-(trifluoromethyl)-1(2H)-pyrimidinyl]-N-methoxy-N-methyl-, (E)-]
6.0: herbicidal effect rating, CYPIR (Cyperus iria; [7]) | herbicidal effect rating, CYPIR (Cyperus iria; [8])
9.0: herbicidal effect rating, MOOVA [4, 5] | herbicidal effect rating, MOOVA [4, 6] | herbicidal effect rating, MOOVA [4, 7] | herbicidal effect rating, MOOVA [4, 8]
0.0: herbicidal effect rating, ECHORC [1, 5] | herbicidal effect rating, ECHORC [1, 6] | herbicidal effect rating, ECHORC [1, 7] | herbicidal effect rating, ECHORC [1, 8] | herbicidal effect rating, CYPSE [2, 5] | herbicidal effect rating, CYPSE [2, 6] | herbicidal effect rating, CYPSE [2, 7] | herbicidal effect rating, CYPSE [2, 8] | herbicidal effect rating, SAGPY (Sagittaria pygmaea, L.; [5]) | herbicidal effect rating, SAGPY (Sagittaria pygmaea, L.; [6]) | herbicidal effect rating, SAGPY (Sagittaria pygmaea, L.; [7]) | herbicidal effect rating, SAGPY (Sagittaria pygmaea, L.; [8]) | herbicidal effect rating ORYSAT [3, 5] | herbicidal effect rating ORYSAT [3, 6] | herbicidal effect rating, CYPIR (Cyperus iria; [5])
2.0: herbicidal effect rating ORYSAT [3, 7]
3.0: herbicidal effect rating ORYSAT [3, 8] | herbicidal effect rating, CYPIR (Cyperus iria; [6])

C=CCOC(=O)/C=C/c1nsc2ccc(-n3c(=O)cc(C(F)(F)F)n(C)c3=O)cc12 [Example 566, 1,2-Benzisothiazole-3-acrylic acid, 5-[3,6-dihydro-3-methyl-2,6-dioxo-4-(trifluoromethyl)-1(2H)-pyrimidinyl]-, allyl ester, (E)-]
6.0: herbicidal effect rating, ECHORC [1, 8] | herbicidal effect rating ORYSAT [3, 8]
0.0: herbicidal effect rating, CYPSE [2, 5] | herbicidal effect rating, CYPSE [2, 6] | herbicidal effect rating, CYPSE [2, 7] | herbicidal effect rating, SAGPY (Sagittaria pygmaea, L.; [5]) | herbicidal effect rating, SAGPY (Sagittaria pygmaea, L.; [6]) | herbicidal effect rating, SAGPY (Sagittaria pygmaea, L.; [7]) | herbicidal effect rating, CYPIR (Cyperus iria; [5]) | herbicidal effect rating, CYPIR (Cyperus iria; [6]) | herbicidal effect rating, CYPIR (Cyperus iria; [7])
3.0: herbicidal effect rating, ECHORC [1, 5] | herbicidal effect rating, ECHORC [1, 6] | herbicidal effect rating, ECHORC [1, 7] | herbicidal effect rating, CYPSE [2, 8] | herbicidal effect rating ORYSAT [3, 6]
9.0: herbicidal effect rating, SAGPY (Sagittaria pygmaea, L.; [8]) | herbicidal effect rating, CYPIR (Cyperus iria; [8]) | herbicidal effect rating, MOOVA [4, 5] | herbicidal effect rating, MOOVA [4, 6] | herbicidal effect rating, MOOVA [4, 7] | herbicidal effect rating, MOOVA [4, 8]
5.0: herbicidal effect rating ORYSAT [3, 7]

CC/C(C=O)=C\c1nsc2ccc(-n3c(=O)cc(C(F)(F)F)n(C)c3=O)cc12 [Example 567, 1,2-Benzisothiazole-3-acrylaldehyde, 5-[3,6-dihydro-3-methyl-2,6-dioxo-4-(trifluoromethyl)-1(2H)-pyrimidinyl]-alpha-ethyl-, (E)-]
3.0: herbicidal effect rating, MOOVA [4, 10]
4.0: herbicidal effect rating, ECHORC [1, 12] | herbicidal effect rating, CYPIR (Cyperus iria; [9]) | herbicidal effect rating, CYPIR (Cyperus iria; [11])
9.0: herbicidal effect rating, CYPIR (Cyperus iria; [10]) | herbicidal effect rating, CYPIR (Cyperus iria; [12]) | herbicidal effect rating, MOOVA [4, 11] | herbicidal effect rating, MOOVA [4, 12]
2.0: herbicidal effect rating, ECHORC [1, 11] | herbicidal effect rating ORYSAT [3, 12]
1.0: herbicidal effect rating ORYSAT [3, 11]
0.0: herbicidal effect rating, ECHORC [1, 9] | herbicidal effect rating, ECHORC [1, 10] | herbicidal effect rating, CYPSE [2, 9] | herbicidal effect rating, CYPSE [2, 10] | herbicidal effect rating, CYPSE [2, 11] | herbicidal effect rating, CYPSE [2, 12] | herbicidal effect rating, SAGPY (Sagittaria pygmaea, L.; [9]) | herbicidal effect rating, SAGPY (Sagittaria pygmaea, L.; [10]) | herbicidal effect rating, SAGPY (Sagittaria pygmaea, L.; [11]) | herbicidal effect rating, SAGPY (Sagittaria pygmaea, L.; [12]) | herbicidal effect rating ORYSAT [3, 9] | herbicidal effect rating ORYSAT [3, 10] | herbicidal effect rating, MOOVA [4, 9]

Cc1ccc(OC(C)C(=O)NS(=O)(=O)C(C)C)c(-c2nsc3ccc(-n4c(=O)cc(C(F)(F)F)n(C)c4=O)cc23)c1 (centres unmarked) [Example 568, Propionamide, 2-{{2-{5-[3,6-dihydro-3-methyl-2,6-dioxo-4-(trifluoromethyl)-1(2H)-pyrimidinyl]-1,2-benzisothiazol-3-yl}-p-tolyl}oxy}-N-(isopropylsulfonyl)-]
5.0: herbicidal effect rating, ECHORC [1, 11] | herbicidal effect rating, CYPIR (Cyperus iria; [11])
3.0: herbicidal effect rating, ECHORC [1, 10] | herbicidal effect rating ORYSAT [3, 12]
9.0: herbicidal effect rating, MOOVA [4, 10] | herbicidal effect rating, MOOVA [4, 11] | herbicidal effect rating, MOOVA [4, 12]
7.0: herbicidal effect rating, CYPIR (Cyperus iria; [12])
6.0: herbicidal effect rating, ECHORC [1, 12]
1.0: herbicidal effect rating ORYSAT [3, 11]
0.0: herbicidal effect rating, ECHORC [1, 9] | herbicidal effect rating, CYPSE [2, 9] | herbicidal effect rating, CYPSE [2, 10] | herbicidal effect rating, CYPSE [2, 11] | herbicidal effect rating, CYPSE [2, 12] | herbicidal effect rating, SAGPY (Sagittaria pygmaea, L.; [9]) | herbicidal effect rating, SAGPY (Sagittaria pygmaea, L.; [10]) | herbicidal effect rating, SAGPY (Sagittaria pygmaea, L.; [11]) | herbicidal effect rating, SAGPY (Sagittaria pygmaea, L.; [12]) | herbicidal effect rating ORYSAT [3, 9] | herbicidal effect rating ORYSAT [3, 10] | herbicidal effect rating, CYPIR (Cyperus iria; [9]) | herbicidal effect rating, CYPIR (Cyperus iria; [10]) | herbicidal effect rating, MOOVA [4, 9]

CCCS(=O)(=O)NC(=O)C(C)Oc1ccc(C)cc1-c1nsc2ccc(-n3c(=O)cc(C(F)(F)F)n(C)c3=O)cc12 (centres unmarked) [Example 569, Propionamide, 2-{{2-{5-[3,6-dihydro-3-methyl-2,6-dioxo-4-(trifluoromethyl)-1(2H)-pyrimidinyl]-1,2-benzisothiazol-3-yl}-p-tolyl}oxy}-N-(propyl-sulfonyl)-]
9.0: herbicidal effect rating, SAGPY (Sagittaria pygmaea, L.; [12])
4.0: herbicidal effect rating, ECHORC [1, 10] | herbicidal effect rating, MOOVA [4, 9]
2.0: herbicidal effect rating, ECHORC [1, 9]
1.0: herbicidal effect rating ORYSAT [3, 12]
5.0: herbicidal effect rating, ECHORC [1, 11] | herbicidal effect rating, ECHORC [1, 12]
0.0: herbicidal effect rating, CYPSE [2, 9] | herbicidal effect rating, CYPSE [2, 10] | herbicidal effect rating, CYPSE [2, 11] | herbicidal effect rating, CYPSE [2, 12] | herbicidal effect rating, SAGPY (Sagittaria pygmaea, L.; [9]) | herbicidal effect rating, SAGPY (Sagittaria pygmaea, L.; [10]) | herbicidal effect rating, SAGPY (Sagittaria pygmaea, L.; [11]) | herbicidal effect rating ORYSAT [3, 9] | herbicidal effect rating ORYSAT [3, 10] | herbicidal effect rating ORYSAT [3, 11] | herbicidal effect rating, CYPIR (Cyperus iria; [9]) | herbicidal effect rating, CYPIR (Cyperus iria; [10]) | herbicidal effect rating, CYPIR (Cyperus iria; [11]) | herbicidal effect rating, CYPIR (Cyperus iria; [12])
6.0: herbicidal effect rating, MOOVA [4, 10] | herbicidal effect rating, MOOVA [4, 11] | herbicidal effect rating, MOOVA [4, 12]

C=CS(=O)(=O)NC(=O)C(C)Oc1ccc(C)cc1-c1nsc2ccc(-n3c(=O)cc(C(F)(F)F)n(C)c3=O)cc12 (centres unmarked) [Example 570, Propionamide, 2-{{2-{5-[3,6-dihydro-3-methyl-2,6-dioxo-4-(trifluoromethyl)-1(2H)-pyrimidinyl]-1,2-benzisothiazol-3-yl}-p-tolyl}oxy}-N-(vinylsulfonyl)-]
3.0: herbicidal effect rating ORYSAT [3, 12]
2.0: herbicidal effect rating, ECHORC [1, 10] | herbicidal effect rating ORYSAT [3, 11]
0.0: herbicidal effect rating, ECHORC [1, 9] | herbicidal effect rating, CYPSE [2, 9] | herbicidal effect rating, CYPSE [2, 10] | herbicidal effect rating, CYPSE [2, 11] | herbicidal effect rating, CYPSE [2, 12] | herbicidal effect rating, SAGPY (Sagittaria pygmaea, L.; [9]) | herbicidal effect rating, SAGPY (Sagittaria pygmaea, L.; [10]) | herbicidal effect rating, SAGPY (Sagittaria pygmaea, L.; [11]) | herbicidal effect rating, SAGPY (Sagittaria pygmaea, L.; [12]) | herbicidal effect rating ORYSAT [3, 9] | herbicidal effect rating, CYPIR (Cyperus iria; [9]) | herbicidal effect rating, CYPIR (Cyperus iria; [10]) | herbicidal effect rating, CYPIR (Cyperus iria; [11]) | herbicidal effect rating, MOOVA [4, 9] | herbicidal effect rating, MOOVA [4, 10] | herbicidal effect rating, MOOVA [4, 11]
9.0: herbicidal effect rating, CYPIR (Cyperus iria; [12]) | herbicidal effect rating, MOOVA [4, 12]
1.0: herbicidal effect rating ORYSAT [3, 10]
6.0: herbicidal effect rating, ECHORC [1, 12]
4.0: herbicidal effect rating, ECHORC [1, 11]
